Data taken from patent US9303027B2 (dated 2016).

- melting point: 280 to 281 °C
Structure (SMILES): CS(=O)(=O)Nc1cc(C2(C(=O)N[C@H](CN3CCCC3)c3ccccc3)CC2)ccc1Cl
